Source: patent publication US8541607B2, “Disulfide, sulfide, sulfoxide, and sulfone derivatives of cyclic sugars and uses thereof” (Lacer, S.A., priority 2003, dated 2013)
One block for each molecule: values may come before it.

What was measured:
arterial rings = assay: Test of vasorelaxation on arterial rings contracted with phenylephrine; type: cell-based; conditions: artery ring contracted with 1 μM Phenylephrine; mean ± s.d.; read-out: EC50 (vasodilatation equal to 50% of the maximum tone)
Procedure: The method used in the assays is substantially the same as described in following references: • * Furchgot, R. F., “Methods in nitric oxide research”; Feelisch & Stamler, eds., John Wiley & Sons, Chichester, England, pp 567-581. • * Trongvanbichnam K., et al., Jpn. J. Pharmacol. 71 (1996); 167-173. • * Sales, E., at al., Eur. J. Pharmacol. 258 (1994); 47-55.
The different compounds are tested at 5 different concentrations, at a concentration range from 0.0001 to 10 mM, using from 6 to 9 arterial rings for each compound. The obtained results are compared to those from the isosorbide 5-mononitrate, which is used as reference product.
The results are shown in table 1 below and are provided as EC50 (effective concentration 50), which is the concentration of each of the tested, compounds yielding a vasodilatation equal to 50% of the maximum tone at which the artery ring has been contracted with 1 μM of Phenylephrine.

[1] = system: human microvascular endothelial cells (HMEC-1); assay: Inhibition of LDL-Dil transcytosis through HMEC-1; type: cell-based; conditions: 2 h, mean ± s.e.m.; for Inhibition of LDL transcytosis, % of inhibition to control, Stimulated cells: HMEC-1 activated with 100 μM histamine; for Inhibition of LDL transcytosis, % of inhibition to control, Resting cells: non activated HMEC-1
Text: The method used in the assays to determine the effect of the compounds on LDL transcytosis in human microvascular endothelial cells is substantially the same as described in Colomé C. et al; Atherosclerosis 2000; 149: 295-302. This test allows a prediction on the anti-atherosclerotic potential of the compounds, since the accumulation of LDL in the vascular wall as a consequence of a vascular endothelial cell active transport is one of the first steps in the development of atherosclerosis.
The method used in the assays to isolate LDL particles from fresh human plasma and the labelling with Di1 is substantially the same as described in Pedreño J. et al., Atherosclerosis 2001; 155: 99-112, and Stephan Z. F. and Yuracheck E. C. J. Lipid Res. 1993; 34:325-330
Activated (100 μM histamine) and non activated HMEC-1 were cultivated in the upper well of inserted of coculture until to reach confluence (Falcon HTS FluorBloK). Then, LPL-Dil (up to 200 μg/ml) was added and cells were incubated for 2 h in the presence and absence of compounds. After these two hours, transcytosis of LDL-Dil particles through endothelial cells was assessed by determination of the presence of fluorescence in the lower well of insert of coculture. Results are expressed as percentage of inhibition respect to control in the absence of compounds).

[2] = system: U937 monocyte adhesion to activated HMEC-1 human endothelial cells; assay: Inhibition of U937 monocyte adhesion to TNF-α activated HMEC-1; type: cell-based; conditions: HMEC-1 activated by TNF-α (50 ng/ml); mean ± s.e.m.
Text: The methods used in the assays to determine the effect of the compounds on platelet and monocyte adhesion to human endothelial cells are substantially the same as described in the following references: • Del Maschio A. et al., J Cell Biol 1996; 135: 497-510 • Bombeli T. et al., Blood 1999; 93: 3831-3838 • Colomé C. et al; Atherosclerosis 2000; 149: 295-302; and • Martin-Satue M. at al; British Journal of Cancer 1999; 80; 1169-1174
The adhesion of the U937-monocyte cells to confluent human microvasculature endothelial cells (HMEC-1) activated by means of TNF-α (50 ng/ml) and the platelets to human umbilical endothelial cells (HUVEC) were the methods used to determine the inhibitory effect of compounds on cellular adhesion. The adhesion of monocytes previously labeled with calcein-2M (Molecular Probes) to HMEC-1 activated by TNF-α, was assessed by determination of the associated-cell fluorescence. The adhesion of washed human platelets previously labeled with MoAb against CD36-FITC to activated-HUVEC (50 μg/ml of LDL minimally modified, LDLmm) was determined by Laser Scanning Cytometry (LSC, Olympus) determining the associated-cell fluorescence. Results are expressed as the percentage of inhibition respect to control (adhesion of the cells in the absence of compounds).

HUVEC cells = assay: In vitro protection against cytotoxicity induced by oxygen radicals (peroxynitrite), XTT method; type: cell-based, human; conditions: HUVEC pre-treated with 50 μM compound for one hour, then 800 μM peroxynitrite overnight
Text: The method used is substantially the same as described by Caveda L., et al. (J. Clin. Invest. […]; 98: 886-893).
For the determination of the capacity to inhibit the cytotoxicity induced by oxygen radicals Human Umbilical Vein Endothelial Cells (HUVEC) were used. HUVEC were isolated and cultured in M199 and 20% FCS (Fetal Calf Serum).
Test XTT assay is based on […] by the metabolically active cells of the salt of tetrazolio XTT to form an orange product, the formazan dye formed is soluble and is directly quantified using an spectrophotometer.
HUVEC cells were cultivated until a sub-confluence status in a 96 well tissue culture plate and pre-treated with 50 μM of the compound for one hour. After that, cells were treated with 800 μM of peroxynitrite for an overnight.
After overnight incubation cells were incubated with the yellow XTT solution (final concentration 0.3 mg/ml) for 4 hours. After this incubation period, orange formazan solution was formed, which was spectrophotometrically quantified using an ELISA plate reader at 450 nm
The results are shown in table 15 and are expressed as percentage of death cells.

[3] = system: Rats, left carotid artery thrombosis (FeCl3); assay: In vivo antithrombotic effect, FeCl3 carotid artery thrombosis; set-up: species or system rat; conditions: single oral dose of 100 mg/Kg; no occlusion during 60 min after FeCl3 patch
Procedure: The method used is substantially the same as described by Kurz (Kurz K. D., et al., Thromb. Res. 1990, 60:269-280) and modified by Feuerstein (Feuerstein G. Z., et al., Artherioscler. Thromb. Vase. Biol. 1999, 19: 2554-25562).
Rats received a single oral dose of 100 mg/Kg of the compounds.
Forty-five minutes after dosing rats were anaesthetized with sodium pentobarbital (40 mg/kg, i.p.) and they were placed later dorsally on a heated (37° C.) surgical board.
The left carotid artery was isolated and a Parafilm 4 sheet (7×20 mm, American National Can) was placed under it. An electromagnetic sounding of flow (Transonic Systems Inc.) was placed on the artery to measure blood flow.
Sixty minutes after product administration, a paper patch saturated with FeCl3 solution (70%) was placed (and not removed for the whole duration of the experiment) on the left carotid artery downstream from the sounding of flow to initiate thrombosis. The blood flow was controlled during the 60 min later to the application of the patch in the artery.
The vessel was considered totally occluded by the thrombus formed when no blood flow was detected (0.0 ml/min). In this model, thrombus formation usually takes place within 15 to 20 minutes in non-treated animals.

EC50 (arterial rings): 41 ± 6 µM
SMILES: O=[N+]([O-])O[C@@H]1CO[C@H]2[C@@H]1OC[C@@H]2S [(1), 2-thioisosorbide 5-mononitrate]
Inhibition of LDL transcytosis, % of inhibition to control, Stimulated cells [1]: 122 ± 8% | Inhibition of LDL transcytosis, % of inhibition to control, Resting cells [1]: 58 ± 15% | % of inhibition to control, U937 monocyte adhesion [2]: 30 ± 8% | % of death cells (HUVEC cells): 80% | % of animals fully protected [3]: 100%

EC50 (arterial rings): 23 ± 10 µM
SMILES: CC(=O)S[C@H]1CO[C@H]2[C@@H]1OC[C@H]2O[N+](=O)[O-] [(12), 2-acetylthio-isosorbide-5-mononitrate]
Inhibition of LDL transcytosis, % of inhibition to control, Stimulated cells [1]: 80 ± 12% | Inhibition of LDL transcytosis, % of inhibition to control, Resting cells [1]: 51 ± 19% | % of inhibition to control, U937 monocyte adhesion [2]: 15 ± 2% | % of death cells (HUVEC cells): 50% | % of animals fully protected [3]: 71%
